Read-outs that look alike come from different tables or passages of the source.

The target in data set [1] is human CB2 receptor (Homo sapiens, UniProt P34972). The data set is described as follows: Adenylylcyclase assay: forskolin-activated cAMP in CB2 transfected HEK-293 cells. It counts as cell-based. The note with it: for inhibition at 1 µM: HEK293, read-out: % inhibition at 1 μM. How it is done: Cannabinoids and derivatives bind to G-protein-coupled CB1 and CB2 receptors and exert their activity via the inhibition of adenylylcyclase activity. An adenylylcyclase assay forms a basis for the functional analysis of the compounds by determining their capacity to inhibit or promote forskolin-activated cAMP production. The assay is carried out according to Chin et al. (Chin, C. N. et al., J. Neurochem. 70: 366-73, 1998). Briefly, HEK-293 human kidney cells (ATCC#CRL-1573) stably transfected with either the human CB1 or CB2 receptor (cDNA) were grown in DMEM supplemented with 10% fetal calf serum, 1% Penicillin-Streptomycin and 2 mM L-glutamine. Cells were seeded in 24 wells plate at 5×10^4 cells/well and incubated for 48 hours. Medium was then removed and the adherent cells were washed with PBS. Two hundred μl of serum free medium supplemented with 0.2 mM Ro 20-1724, 0.25% BSA, and 20 mM HEPES was then added to each well. The cells were then activated with 1 μM forskolin in presence of the bicyclic test compounds in concentrations ranging from 10 pM up to 1 μM. The activated cells were then incubated at 37° C. for 20 minutes and the reaction terminated with 1.2 M HCl to a final concentration of 0.1 M. Cells were lyzed by freeze and thaw and the lysate was neutralized with 2 M HEPES, pH 7.5. cAMP was measured in 50 μl aliquots using the [^3H]-cAMP assay system (Amersham).
Sequence of human CB2 receptor (P34972 whole entry): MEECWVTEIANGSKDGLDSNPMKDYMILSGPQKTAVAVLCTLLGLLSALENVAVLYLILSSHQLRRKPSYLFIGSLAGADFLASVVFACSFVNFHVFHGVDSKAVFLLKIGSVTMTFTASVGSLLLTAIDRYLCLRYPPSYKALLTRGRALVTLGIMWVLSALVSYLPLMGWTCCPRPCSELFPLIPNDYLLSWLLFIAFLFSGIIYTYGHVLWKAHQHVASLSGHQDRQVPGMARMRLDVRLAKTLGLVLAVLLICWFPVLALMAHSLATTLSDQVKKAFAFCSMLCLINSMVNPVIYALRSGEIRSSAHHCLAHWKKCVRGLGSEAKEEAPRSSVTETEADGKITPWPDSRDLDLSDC
This experiment was first performed on CB2 receptor transfected cells.

Data set [2] concerns Female Balb/c mice. Details: maximal reduction in paw edema: dose or concentration left out as unconfirmed. The note with it: for maximal reduction in paw thickness (MOE) / dose at which the maximal effect was observed: i.p.; for maximal reduction in paw thickness (MOE): 3 hours after carrageenan, at the dose of maximal effect; for dose at which the maximal effect was observed: paw thickness. How it is done:
The purpose of this study is to test in vivo the anti-inflammatory activity of the compounds in paw edema induced by injection of 1% carrageenan in the animal hind paw. Female Balb/c mice (20 g average body weight, Harlan, Israel) are anesthetized with a combination of xylazine and pentobarbitone diluted in sterile saline, 15 and 6 mg/kg i.p. respectively. Anesthetized mice are injected subcutaneously, in the subplantar region of one (right) paw with 0.05 ml of 1% w/v Carrageenan in sterile water. […] The test compounds, including known anti-inflammatory controls, are dissolved in CREMOPHOR EL®:ethanol and further diluted 1:20 or 1:50 in sterile saline prior to i.p. injection that takes place immediately before the carrageenan injection. Three hours after injection the animals are resedated following the previously described procedure. Paw thickness is measured using a dial thickness gauge (Spring-dial, constant low pressure gauge, Mitutoyo, TG/L-1, 0.01 mm) and paw volume is measured using a plethysmometer (model #7150, Ugo Basile, Italy). Paw Edema is expressed as the difference between the right treated and the left untreated paws of the same animal, either as Δ Paw Volume (ΔPV) in millimeters cube or as Δ Paw Thickness (ΔPT) in millimeters. Each group comprises at least 10 animals. […] At the end of the study, animals are euthanized with an i.p. injection of 100 mg/kg pentobarbitone.
The differences among various treatment groups are analyzed by analysis of variance (ANOVA) followed by post-hoc Fisher test. A value of p<0.05 is considered to be statistically significant.
For sake of comparison, known anti-inflammatory drugs such as Celecoxib and Dexamethasone yield respectively in the range of relevant doses 7% and 26% reduction in paw thickness at 0.1 mg/kg, 16% and 31% at 0.25 mg/kg and 24% and 33% at 0.5 mg/kg. […] It should be kept in mind that these commercially available drugs display serious side effects that prevent chronic uses without complementary protective medication.

The test system of data set [3] is Male Sprague Dawley rats. The data set is described as follows: Inflammatory pain: carrageenan paw edema in rats, thermal and mechanical stimuli. The note with it: for ΔForce (tactile stimulus) / ΔLT (thermal stimulus): three hours. Type of data set: in vivo, rat. A digest of the protocol: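 Male Sprague Dawley rats (~200 g) with carrageenan-inflamed paw, tested before and 3 h after injection. Thermal withdrawal latency measured by Hargreaves plantar test at intensity 50, and mechanical threshold by dynamic plantar aesthesiometer. Values are inflamed minus non-inflamed paw differences at 0 and 3 h (ΔLT, ΔForce).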
(In general: In the carrageenan paw model, swelling and tenderness develop within hours.)

For data set [4], the system named is PGE2 secretion from activated RAW 264.7 macrophages. The data set is described as follows: Inhibition of PGE2 in LPS activated macrophages (ELISA). Particulars: 4 hours after activation, doses 1 μM to 20 μM. Type of data set: cell-based, mouse. The source says: The technique used to quantify the amount of a given protein in a liquid sample, either tissue culture supernatant or body fluid, is based on Enzyme Linked ImmunoSorbent Assay (ELISA) methodology. Either commercially available or established in house, the assay is based on the capture of the protein of interest by specific antibodies bound to the bottom of an ELISA plate well. Unbound material is washed away, the captured protein is then exposed to a secondary antibody generally labeled with horseradish peroxidase (HRP) or alkaline phosphatase (ALP). Again the unbound material is washed away, the samples are then incubated with the appropriate substrate yielding a calorimetric reaction. The reaction is stopped and reading is performed in a spectrophotometer at the appropriate wavelength. Samples are tested at least in duplicate and the appropriate standard curve, consisting of serial dilutions of the recombinant target protein, is incorporated on each plate. Concentration of the protein in the sample is calculated from the standard curve.
RAW 264.7 macrophages, a mouse cell line (ATCC # TIB-71), were grown in Dulbecco's modified Eagle's medium (DMEM) with 4 mM L-glutamine adjusted to contain 1.5 g/L sodium bicarbonate, 4.5 g/L glucose, and 10% heat inactivated fetal bovine serum. Cells were grown in tissue culture flasks and seeded at appropriate density into 24 wells tissue culture plates. 0.5×10^6 Raw cells in one milliliter were stimulated with 2 μg/ml Lipopolysaccharide E. coli 055:B5 (DIFCO Laboratories). The mouse macrophages were pre-treated for one hour with controls or 10 μM of bicyclic CB2 ligands and later on activated with LPS. Dexamethasone was used as a positive control at 50 nM. Supernatant was collected 4 hours (for PGE2) and 24 hours (for IL-1β and TNF-α) after activation, and the levels of the inflammatory agent under study were determined by ELISA, as previously described. Inhibition was calculated versus vehicle treated cells.
The activation of the macrophages is performed as previously described. The levels of PGE2 are measured in an ELISA assay as previously described. Inhibition is calculated versus vehicle treated cells. […] Results are depicted in FIG. 2B.
In general terms: ELISA stands for enzyme-linked immunosorbent assay.

Setting [5] is: CB2 receptor transfected HEK-293, 1 μM forskolin.
The mark [6] stands for this setting: CB2 receptor transfected HEK-293, 1 μM forskolin, read-out: IC50 inhibition of cAMP level.

As for `CCCCCCC(C)(C)c1cc(O)c(C2CC(=O)C3CC2C3(C)C)c(O)c1` (single isomer, unassigned; (-)) [Compound A, (−)-4-[4-(1,1-Dimethyl-heptyl)2,6-dihydroxy-phenyl]-6,6-dimethyl-bicyclo[3.1.1)heptan-2-one], half-maximal inhibition in data set [1] (IC50) was put at 0.00024 µM. For the same molecule, the inhibition at 1 µM in data set [1] (setting [5]) was 63%. Also, in data set [2], the “maximal reduction in paw thickness (MOE)” value turned out to be 28% and the “dose at which the maximal effect was observed” value (“dose” for short) came out at 2.5 mg/kg. In data set [3] (8 mg/kg i.p.), the “ΔForce (tactile stimulus)” value came out at 2 g and the “ΔLT (thermal stimulus)” value was found to be 1.5 s. In data set [4] (Mus musculus, RAW264.7), this molecule gave an IC50 of 9 µM.
For the molecule `CCCCC(C)(C)c1cc(O)c(C2CC(=O)C3CC2C3(C)C)c(OC(=O)CCC(=O)O)c1` (single isomer, unassigned; (-)) [Compound Y, (−)-4-{4-[1,1-Dimethyl-pentyl]-2-succinate-6-hydroxy-phenyl}-6,6-dimethyl-bicyclo[3.1.1]heptan-2-one], the “% inhibition at 1 μM” value in data set [1] (setting [5]) was found to be 60%. For the same molecule, the IC50 in data set [1] (setting [6]) was 0.00113 µM; in data set [4], 7 µM.
As to `CCCCC(C)(C)c1cc(O)c(C2CC(=O)C3CC2C3(C)C)c(O)c1` (single isomer, unassigned; (-)) [Compound L, (−)-4-[4(1,1-Dimethyl-pentyl)-2,6-dihydroxy-phenyl]-6,6-dimethyl-bicyclo[3.1.1]heptan-2-one], the inhibition at 1 µM in data set [1] (setting [5]) was found to be 33%. Also, in data set [2], the “maximal reduction in paw thickness (MOE)” value came to 34% and the “dose” value is 0.25 mg/kg. Besides, in data set [3] (2 mg/kg i.p.), the “ΔForce (tactile stimulus)” value worked out at 11 g. Further, the IC50 in data set [4] (Mus musculus, RAW264.7) came to 7 µM.
As to `CCCCCCC(C)(C)c1cc(OC)c(C2C=C(CO)C3CC2C3(C)C)c(OC)c1` (single isomer, unassigned; (+)) [HU-308, (+) {4-[4-(1,1-dimethylheptyl)-2,6-dimethoxy-phenyl]-6,6-dimethyl-bicyclo[3.1.1]hept-2-en-2-yl}-methanol, reference compound], in data set [2], the “maximal reduction in paw thickness (MOE)” value is reported as “about 28%” and the “dose” value was determined as 0.6 mg/kg.
Regarding `CCCCCCC(C)(C)c1cc(O)c([C@H]2CC(=O)[C@H]3C[C@@H]2C3(C)C)c(OC(=O)CCC(=O)O)c1` [Compound R, (−)-4-{4-[1,1-Dimethyl-heptyl]-2-succinate-6-hydroxy-phenyl}-6,6-dimethyl-bicyclo[3.1.1]heptan-2-one], in data set [1] (setting [6]), the IC50 is 0.00047 µM. The inhibition at 1 µM in data set [1] (setting [5]) worked out at 64%. The “maximal reduction in paw edema” value in data set [2] (formulated in cosolvent) is 31%. In data set [2], the “maximal reduction in paw thickness (MOE)” value is recorded as 31% and the “dose” value stood at 0.5 mg/kg. Moreover, the therapeutic index entry in data set [2] (paw edema, 0.5 mg/kg versus tolerated 40 mg/kg) was “at least 80”. For the same molecule, the “reversal of analgesic activity against thermal and mechanical stimuli by antagonists” value in data set [3] (5 mg/kg i.p. SR141716A or SR144528, 15 minutes before carrageenan and compound) is given as “not reversed by any of the antagonists”. Also, in data set [3] (10 mg/kg i.p.), the “ΔForce (tactile stimulus)” value was 4 g and the “ΔLT (thermal stimulus)” value turned out to be 0 s. The IC50 in data set [4] (Mus musculus, RAW264.7) is 9 µM.

Usually IC50 stands for the concentration at which inhibition is half-maximal. Broadly, the inhibition is the drop in the measured response relative to a control, in per cent. As a reminder, the % inhibition is the relative decrease from the control value, in per cent.
